In one data set the test system is isolated rat aorta. Briefly: Vasodilating effect on blood vessel excised from rats (methoxamine-constricted aorta). The conditions noted are these: isolated rat aorta constricted with methoxamine (3 μM); read-out: Concentration for inhibition of constriction induced by methoxamine in rat arota (IC50). In a few lines:
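Endothelium-denuded rat thoracic aortic rings (3 mm) in Krebs-Henseleit buffer, 37 °C, carbogen, 2 g resting tension, primed twice with 10^−5 M phenylephrine. After maximal contraction with 3×10^−6 M methoxamine, compounds added cumulatively at 1, 3, 10, 30 μM. IC50 = concentration giving 50% relaxation of maximal constriction, by linear regression.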

Data set [1] has as its system Low density lipoprotein of human (human LDL). Briefly: Inhibitory effect against lipid peroxidation induced by copper (LDL oxidation, MDA). It counts as biochemical. The following applies: CuSO4 10 μM, 37° C. 18 hours. On the procedure: Low density lipoprotein of human (human LDL, sigma) was dissolved in water to be final concentration of 1 mg/ml. To remove EDTA (ethylenediamine tetraacetate), the aqueous solution was dialyzed in phosphate buffer at 4° C. for 18 hours. At this dialysis, phosphate buffer was changed three times. Phosphate buffer was added to LDL (100 μg LDL protein/ml) which EDTA was removed from the aqueous solution, additionally thereto CuSO4 10 μM as oxidant was added. […] Group to which CUSO4 was not added was used as blank group. Group to which CUSO4 and vehicle were added in place of test compounds was used as control group. The mixture was incubated at 37° C. for 18 hours. EDTA […] was added to the mixture to terminate the oxidation reaction.
As shown in example 4, Cu^2+ facilitates the oxidation reaction to produce malondialdehyde (MDA), lipid peroxidation product. The MDA quantification is achieved by reacting samples with 2-thiobarbituric acid (TBA) and measuring the absorbance at 530 nm. Also, 1,1,3,3-tetramethoxypropane purchased from sigma was used as standard materials. Inhibitory effect against lipid peroxidation of the test compounds was measured by MDA (nmol) to protein (mg). Decrease of MDA to that of control group was calculated.

Data set [2] is described as follows: Acute oral toxicity test in rats. The following applies: SD, rat, in vivo, single oral dose, suspended in 0.5% methyl cellulose, read-out: lethal dose (LD50) for oral administration. In a few lines: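 Six-week-old SPF SD rats, two per group, received compounds orally as suspensions in 0.5% methyl cellulose. Endpoints were clinical signs, body weight, mortality, haematology, serum biochemistry and macroscopic necropsy of organs and tissues.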

The subject of a further data set is RAW 264.7 cells. Briefly: Inhibitory effect on NO production (LPS, Griess reagent). The conditions noted are these: Mus musculus, RAW264.7, 24 h, Addition 30 μM, LPS 1 μg/ml, read-out: Inihibition (%) of NO production. It counts as cell-based, murine. On the procedure: Using RPMI1640 media supplemented with 10% fetal bovine serum (FBS), RAW 264.7 cells (obtained from American Type Culture Collection), a murine macrophage cell line, were cultured at 37° C. in a 5% CO2 incubator. The RAW 264.7 cells were harvested and cell density was adjusted to 5×10^5 cell/ml with a RPMI media supplemented with 0.5% FBS and plated at 5×10^4 cell/well to 96-well plate, which were then cultured for 20 hours in a CO2 incubator. After removal of the media, the cells were pre-treated for 1 hour with fresh media containing 30 μM. The test compounds were dissolved in DMSO and diluted to respective concentration in the media. In order to minimize DMSO effect on the nitric oxide formation by the RAW 264.7 cells in the walls, the media were allowed to contain DMSO at a concentration of 0.1% or less.
After completion of one-hour pre-treatment, Lipopolysaccharide (E. coli serotype 055:B5) was added to activate the cells at a final concentration of 1 μg/ml, which were maintained for 24 hours in a CO2 incubator. As a result of the activation of RAW 264.7 cells with LPS, NO was formed. The NO release into the media was in a form of nitrite (NO2^−) and quantitatively measured using the Griess reagent. A control group was treated only with vehicle instead of test compounds.
The inhibitory effect of the test compounds against NO production were determined as the reduction of NO quantity compared with that of the control group.
On the technique in general: Nitrite, measured by Griess reagent, commonly stands in for NO production.

pIC50: −log10 of the molar value.

For the compound `COC(OC)[C@@]1(C)Oc2ccc(N)cc2[C@H](N(Cc2nnn(C)n2)c2ccc(Cl)cc2)[C@H]1O` [Example 11, (2S,3R,4S)-6-amino-4-[N-(4-chlorophenyl)-N-(2-methyl-2H-tetrazol-5-ylmethyl)amino]-3-hydroxy-2-methyl-2-dimethoxymethyl-3,4-dihydro-2H-1-benzopyran], in the data set on isolated rat aorta, the pIC50 was less than 4.52. The “Inhibitory effect(%) against lipid peroxidation induced by copper” value in data set [1] (Addition 10^−5 M) is 63.9%; in data set [1] (Addition 10^−6 M), 54.9%; in data set [1] (Addition 10^−7 M), 27.3%. Further, the LD50 in data set [2] was more than 2000 mg/kg. Also, in the data set on RAW 264.7 cells, the inhibition at 30 µM is 27%.

For the origin of these results see US7414068B2, “Benzopyran derivatives substituted with secondary amines including tetrazole, method for the preparation thereof and pharmaceutical compositions containing them” (Dongbu Hannong Chemical Co., Ltd., priority 2002, dated 2008).
